# Reference: PMC4871480, “A Miniaturized Screen of a Schistosoma mansoni Serotonergic G Protein-Coupled Receptor Identifies Novel Classes of Parasite-Selective Inhibitors” (PLoS Pathogens, 2016)
# Entries after “also recorded” stand apart in the source; their conditions may differ. Read-outs that look alike come from different tables or passages of the source.
# Columns and labels:
# Sm.5HTR [1] = molecular target: T1, Sm.5HTR (Schistosoma mansoni, UniProt G4V5G4); experiment: cell-based; format: cell-based; settings: for potency (IC50) at Sm.5HTR: Fig 7 quadrant
# T1 sequence (G4V5G4 entry or part of it): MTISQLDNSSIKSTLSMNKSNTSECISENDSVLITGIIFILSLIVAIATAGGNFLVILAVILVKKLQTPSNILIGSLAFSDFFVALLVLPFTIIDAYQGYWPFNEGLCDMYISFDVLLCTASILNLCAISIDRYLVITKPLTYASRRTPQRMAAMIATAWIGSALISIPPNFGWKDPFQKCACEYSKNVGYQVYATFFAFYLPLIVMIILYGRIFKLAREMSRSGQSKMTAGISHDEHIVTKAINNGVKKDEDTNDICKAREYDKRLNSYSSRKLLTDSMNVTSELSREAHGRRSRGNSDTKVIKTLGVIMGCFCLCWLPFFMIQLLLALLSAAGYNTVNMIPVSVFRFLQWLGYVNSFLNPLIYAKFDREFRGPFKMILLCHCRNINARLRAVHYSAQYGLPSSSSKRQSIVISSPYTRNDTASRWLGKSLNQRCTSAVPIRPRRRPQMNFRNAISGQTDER
# Procedure: (§1) HEK293 cells (ATCC CRL-1573.3) were cultured in DMEM supplemented with 10% fetal bovine serum (FBS), penicillin (100 units/ml), streptomycin (100 μg/ml), and L-glutamine (290 μg/ml). Cells were transiently transfected (ViaFect, Promega) as per the manufacturer’s protocol at a density of 2x10^6 cells per T-25 cell-culture flask. Cells were transfected with plasmids encoding GloSensor (Promega) and either Sm.5HTR (Smp_126730, GenBank accession number KF444051.1) or Sm.5HTRL (KX150867), bothGPCRs being codon optimized for mammalian expression, or Hs.5HT7a (GenBank accession number NM_000872.4, R&D Systems) subcloned into pCS2(-). Cell culture reagents were from Invitrogen. Epitope tagged constructs were used to verify expression, and untagged constructs used for all luminescence assays.
# (§2) For assays performed on adherent cells, HEK-293 cells were transferred one day post transfection to 96 well, solid white plates (Corning, cat # 3917) coated with 0.01% poly-L-lysine (Sigma Aldrich) at a density of 5 x 10^4 cells / well in DMEM supplemented with 1% dialyzed FBS (Gibco). After overnight culture (37°C/5% CO2), media was decanted and replaced with 100μL / well HBSS supplemented with 0.1% BSA, 20mM HEPES (pH 7.4) and GloSensor reagent. Plates were allowed to equilibrate at room temperature for two hours prior to performing luminescence assays (GloMax-Multi Detection System plate reader, Promega). Conditions for individual assays were described as per figure legends. The standard assay to detect changes in cAMP utilized the F22 sensor in media supplemented with IBMX (200μM). Ligands were added at a concentration of 20x per well for experiments (i.e. 5μl of drug solution added to 100μl of cells). […] For the resazurin reduction assay for cellular viability, cells were incubated with resazurin (final concentration, 10μM) and tested ligands with fluorescence measurements (560 nm excitation/590 nm emission) made at 1.5hr intervals.
# Hs.5HT7R = molecular target: T2, Hs.5HT7R (Homo sapiens, UniProt P34969); experiment: GloSensor cAMP assay in HEK293 cells expressing Hs.5HT7R; format: cell-based; settings: for potency (IC50) at Hs.5HT7R: Fig 7 quadrant
# T2 construct: host or cells: HEK293 (ATCC CRL-1573.3), transient transfection, pCS2(-) vector
# T2 sequence (P34969 1-445 isoform P34969-2): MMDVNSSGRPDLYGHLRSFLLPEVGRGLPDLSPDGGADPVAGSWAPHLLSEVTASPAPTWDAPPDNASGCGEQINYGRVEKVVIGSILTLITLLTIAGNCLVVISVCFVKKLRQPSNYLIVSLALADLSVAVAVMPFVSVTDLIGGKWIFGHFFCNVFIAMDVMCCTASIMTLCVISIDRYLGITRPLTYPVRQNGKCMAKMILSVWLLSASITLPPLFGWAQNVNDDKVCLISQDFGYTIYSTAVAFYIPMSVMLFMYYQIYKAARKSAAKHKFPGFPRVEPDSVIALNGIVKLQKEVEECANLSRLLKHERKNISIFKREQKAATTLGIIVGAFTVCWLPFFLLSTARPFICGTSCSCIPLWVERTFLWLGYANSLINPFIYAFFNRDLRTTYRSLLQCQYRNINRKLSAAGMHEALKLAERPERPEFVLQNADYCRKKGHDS
# Procedure: as §1, §2
# Sm.5HTR [2] = molecular target: T1, Sm.5HTR; experiment: Antagonist washout (inactivating antagonist) GloSensor assay on suspension cells; format: cell-based
# Procedure: To test putative irreversible antagonists, assays on suspension cells were performed one day post transfection. […] Compounds were added at 10 μM, and after 30 minute incubation at room temperature cells were centrifuged (300 RCF, 5 minutes) and resuspended in fresh media. This wash step was repeated, and cells were resuspended in HBSS supplemented with 0.1% BSA, 20mM HEPES and GloSensor reagent. Cells were gently rotated to prevent aggregation and settling over the course of the two hour equilibration period, after which time they were transferred to 96 well plates at a density of 8 x 10^4 cells / 100μL per well and assays described for adherent cells.
# [3] = system: S. mansoni schistosomules; experiment: Schistosomule contractility assay; format: in vivo, Schistosoma mansoni; settings: Schistosoma mansoni, read-out: IC50 (inhibition of 5-HT evoked contractions)
# Procedure: Biomphalaria glabrata (M-line) snails exposed to Schistosoma mansoni miracidia (Strain PR-1) were obtained from BEI Resources (Cat. number NR-21961) and cercaria were shed following exposure to light (1.5 hours). Cercaria were manually transformed into schistosomula by vortexing (3 x 45 seconds, each separated by 3 minutes on ice) and tails were removed by gradient centrifugation (24ml Percoll, 4ml 10X EMEM, 1.5ml penicillin-streptomycin, 1ml of 1M HEPES in 0.85% NaCl, 9.5ml distilled water) at 500g/15min at 4°C. Supernatant containing tails was discarded, and schistosomules were resuspended in Basch media and incubated (37°C, 5% CO2) overnight before conducting mobility assays. For contractility experiments, somules were incubated in 5-HT free Basch media to resolve a basal contractility rate. […] Schistosomules were incubated in 24 well plates (~200 schistosomules / 0.5mL media per well) for 30 minutes (37°C/5% CO2) prior to acquiring videos of schistosome movement (1 minute recordings / well) using a Nikon Coolpix 5700 camera affixed to a Nikon Eclipse TS100 microscope (10x objective). The WrmTrck plugin for ImageJ was used to quantify worm mobility. Briefly, the major axis of each schistosomule body length was extracted from the raw output of WrmTrck and an average length was determined for the duration of the recording. Contractions were quantified by determining the number of episodes during which the worm body length deviated from the average by over 20%. S. mansoni protocols were approved by the Iowa State University Institutional Biosafety Committee.
# adult schistosomes = experiment: Adult schistosome mobility assay; format: in vivo, Schistosoma mansoni; settings: 10μM; for effect on 5-HT evoked increases in worm movement / time to recovery of movement after drug removal, male worms: 5-HT 100μM; for time to recovery of movement after drug removal, male worms: 2 hour exposure; for effect on basal movement of adult worms: worms at rest
# Procedure: Female Swiss Webster mice exposed to Schistosoma mansoni cerceria (Strain PR-1) at 5–7 weeks old were obtained from BEI Resources (Cat. number NR-34792) and sacrificed 6–8 weeks post-infection. Mature S. mansoni were harvested from the mesenteric vasculature by portal perfusion. Briefly, mice were anesthetized in a CO2 chamber and sacrificed by cervical dislocation. Mice were perfused with sodium citrate (25mM) and adult schistosomes were harvested from the mesenteric veins. Schistosomes were washed in RPMI media containing penicillin (1000 units/mL), streptomycin (1000 μg/mL) and 25mM HEPES, then transferred to RPMI media supplemented with 2mM glutamine and 5% heat inactivated FBS. Worms were incubated overnight at 37°C, 5% CO2 before conducting assays. Recordings of adult schistosome movement were captured using a Zeiss Discovery v20 stereomicroscope and a QiCAM 12-bit cooled color CCD camera. Videos were acquired at a rate of four frames per second for one minute. Recordings of female worms were acquired at 7.6x magnification, 30 mm field of view and recordings of male worms were acquired at a 5.1x magnification, 45 mm field of view. Analysis was performed in ImageJ as described previously. Briefly, image (.tiff) stacks of each recording were imported and processed by converting to binary format so that pixel measurements represent area of the worms’ bodies. Mobility was quantified by measuring the difference in pixels resulting from subtracting the value of one frame (n) from those of the next frame in the sequence (n+1). This difference was expressed as a percentage of the pixels in the initial frame (n), providing a measurement of the worms’ movement over a period of 0.25 seconds. This calculation was performed for each frame in the video, and the results were averaged over the length of the recording. Values reported represent the mean (±) standard error of at least three independent experiments. Animal work was carried out with the oversight and approval of the Laboratory Animal Resources facility at the Iowa State University College of Veterinary Medicine.
# regenerating planarians = system: regenerating planarians; design: method as in PMID 24586156; settings: cited from earlier work
# Sm.5HTRL = Sm.5HTRL (Schistosoma mansoni, UniProt A0A173FEI8); experiment: GloSensor cAMP assay in HEK293 cells expressing Sm.5HTRL; format: cell-based; settings: antagonists 10μM, 5-HT EC80 dose
# Chain of Sm.5HTRL (A0A173FEI8 entry or part of it): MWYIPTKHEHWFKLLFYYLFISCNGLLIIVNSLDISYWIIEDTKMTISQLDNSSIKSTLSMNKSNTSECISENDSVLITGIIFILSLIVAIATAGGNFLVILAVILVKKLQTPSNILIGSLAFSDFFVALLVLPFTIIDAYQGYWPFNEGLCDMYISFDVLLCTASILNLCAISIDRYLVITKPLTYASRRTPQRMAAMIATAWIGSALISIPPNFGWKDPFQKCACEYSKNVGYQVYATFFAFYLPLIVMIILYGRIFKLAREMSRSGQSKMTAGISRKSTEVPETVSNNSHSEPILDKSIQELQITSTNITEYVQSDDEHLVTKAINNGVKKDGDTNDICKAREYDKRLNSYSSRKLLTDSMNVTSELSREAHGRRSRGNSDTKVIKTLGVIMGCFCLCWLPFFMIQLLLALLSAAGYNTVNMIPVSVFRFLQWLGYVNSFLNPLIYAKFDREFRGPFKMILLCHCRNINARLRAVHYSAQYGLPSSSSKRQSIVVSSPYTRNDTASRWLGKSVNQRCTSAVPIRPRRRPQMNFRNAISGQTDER
# Procedure: as §1, §2
compound,measurement,setting,value
CC(C)C[C@H]1C(=O)N2CCC[C@H]2[C@]2(O)O[C@](NC(=O)[C@@H]3C=C4c5cccc6[nH]c(Br)c(c56)C[C@H]4N(C)C3)(C(C)C)C(=O)N12 [bromocriptine],ligand type at Sm.5HTR,Sm.5HTR [1]; Fig 5F,Antagonist
same,potency (IC50) at Sm.5HTR,Sm.5HTR [1],sub-μM potency
same,Kb,"Sm.5HTR [1]; KB (affinity constant, Schild regression), right-shift of 5-HT dose-response",410 nM
same,selectivity for the parasitic 5-HT receptor,Sm.5HTR [1]; Sm.5HTR over Hs.5HT7R,~ 10 fold
same,inhibition of 5-HT evoked cAMP generation,Sm.5HTR [1]; at higher concentrations (>10μM),almost complete inhibition
same,agonist efficacy at Sm.5HTR,"Sm.5HTR [1]; dose response, Fig 5A",no efficacy
same,acute inhibition of 5-HT (10μM) response at Sm.5HTR,"Sm.5HTR [1]; drug 10μM, preincubation",acutely inhibited
same,Kb,"Sm.5HTR [1]; pKB ± S.E.M, Schild regression",407 nM
same,potency (IC50) at Hs.5HT7R,Hs.5HT7R,supra-μM potency
same,inhibition of Sm.5HTR after antagonist wash-out,"Sm.5HTR [2]; 10μM for 30 mins, washout, 5-HT response 1hr later",long-lasting inhibition
same,potency for Sm.5HTR inhibition after washout,"Sm.5HTR [2]; titration, Fig 6E",most potent
same,IC50,[3],≤ 1000 nM
same,effect on 5-HT evoked increases in worm movement,adult schistosomes,inhibited
same,"time to recovery of movement after drug removal, male worms",adult schistosomes,24 h
same,effect on basal movement of adult worms,adult schistosomes,markedly inhibited worm movements at rest
same,"concentration evoking bipolarity, fold less than PZQ",regenerating planarians,100 fold
COc1cc2c(cc1OC)[C@@H]1Cc3ccc(OC)c(OC)c3CN1CC2 [rotundine],IC50,Sm.5HTR [1],701 ± 207 nM
same,selectivity for Sm.5HTR over Hs.5HT7R,Sm.5HTR [1],clear selectivity for Sm.5HTR; also recorded: clear bias toward Sm.5HTR
same,potency (IC50) at Sm.5HTR,Sm.5HTR [1],sub-μM potency
same,IC50,"Sm.5HTR [1]; IC50 (antagonism of 5-HT evoked cAMP generation), 5-HT at EC80",~700 nM
same,inhibition of 5-HT evoked cAMP generation through Sm.5HTRL,Sm.5HTRL,inhibited 5-HT evoked cAMP generation
same,potency (IC50) at Hs.5HT7R,Hs.5HT7R,supra-μM potency
same,effect on Hs.5HT7,Hs.5HT7R; concentrations up to 50μM,lacking any effect
same,IC50,[3],≤ 1000 nM
same,effect on 5-HT evoked increases in worm movement,adult schistosomes,inhibited
same,"time to recovery of movement after drug removal, male worms",adult schistosomes,≤ 3 h
same,effect on basal movement of adult worms,adult schistosomes,markedly inhibited worm movements at rest
